Values quoted from earlier work, collected in PMC4336743, “Improved production of sublancin via introduction of three characteristic promoters into operon clusters responsible for this novel distinct glycopeptide biosynthesis” (Microbial Cell Factories, 2015).

What was measured:
proteinases, peptidases = tested on: proteinases, peptidases
Experimental: Proteolytic susceptibility of sublancin should also be considered in various applications such as in treating bacterial–mediated mastitis or bacterial–mediated gastroenteritis. Therefore, a number of bacterial proteases and gastrointestinal digestive enzymes, e.g., P. aeruginosa elastase and S. aureus V8 protease, pepsin and trypsin would certainly be encountered. […] All experiments were performed in vitro; therefore in vivo studies should be conducted prior to clinical ap ...

S. aureus = tested on: S. aureus
Experimental: Antibacterial activity and cytotoxicity of sublancin were also evaluated. […] These findings are consistent with previously reported study and is almost equal to that of nisin that is a common and typical antimicrobial peptide from Lactococcus lactis, and is widely used in clinical and food preservation applications, with MIC of 0.5 mg/L against S. aureus.

| Substance | antimicrobial potency after exposure to proteinases, peptidases and heat (proteinases, peptidases) | MIC against S. aureus (S. aureus) |
| --- | --- | --- |
| Bovicin HC5 | remarkable antimicrobial potency reduction | – |
| nisin | – | 0.5 µg/mL |
